Test results reported in patent US9834525B2, “Inhibitors of paxillin function and related compositions and methods” (UNIVERSITY OF TENNESSEE RESEARCH FOUNDATION, priority 2015, dated 2017).
Read-outs that look alike come from different tables or passages of the source.

Tests used:
[1] = Microsomal stability, pooled rat liver microsomes; assay type: in vitro ADME; conditions: 1 μM, 37° C., 60 min
Procedure: Microsomal stability of compound (II-4) (1 μM) was assessed in pooled liver microsomes (human, mouse, and rat) (FIG. 7). Briefly, compound (II-4) was incubated in duplicate with microsomes at 37° C. Reactions contained microsomal protein in 100 mM potassium phosphate, 2 mM NADPH, 3 mM MgCl2, pH 7.4. NADPH was omitted to detect NADPH-free degradation. At 60 minutes, the reaction was stopped by adding ice-cold methanol containing internal standard. Samples were centrifuged to remove precipitated protein, and the supernatants were analyzed by LC/MS/MS to quantitate the remaining parent.
Microsomal stability of compound (II-4) (1 μM) was assessed in pooled liver microsomes (human, mouse, and rat) (FIG. 23). Briefly, compound (II-4) was incubated in duplicate with microsomes at 37° C. Reactions contained microsomal protein in 100 mM potassium phosphate, 2 mM NADPH, 3 mM MgCl2, pH 7.4. NADPH was omitted to detect NADPH-free degradation. At 60 min, the reaction was stopped by adding ice-cold methanol (+ internal standard). Samples were centrifuged to remove precipitated protein, and the supernatants were analyzed by LC/MS/MS to quantitate the remaining parent.

[2] = tested on: retinal endothelial cells (REC); experiment: REC scratch-wound assay, VEGF-induced migration; assay type: cell-based, human; conditions: for IC50: Homo sapiens, Endothelial cell
Procedure: RECs were wounded and treated with VEGF (20 ng/mL) and either compound (II-4) (1 μM) or vehicle. Compound (II-4) reduced migration by ˜10-fold when measured 24 hrs post-scratch. (*P<0.001; n=6).
Two methods of evaluating VEGF-induced REC migration were used to assess the impact of compound (II-4) on paxillin-mediated migration: the scratch assay and the transwell (Boyden chamber) cell migration assay. To test if paxillin inhibition would reduce VEGF-induced REC migration, RECs were wounded and treated with VEGF ([…]) +/− compound (II-4) ([…]). Wound closure was monitored by phase microscopy over 24 hours and area of wound closure was calculated using the sophisticated image analysis tools in Adobe Photoshop. Cells were then fixed and nuclei were stained using DAPI to show extent of cell migration.
FIG. 2: REC scratch-wound assay. RECs were wounded and treated with VEGF (20 ng/mL) and either compound (II-4) (1 μM) or vehicle. Compound (II-4) reduced migration by ˜10-fold when measured 24 hrs post-scratch. (*P<0.001; n=6)
FIG. 17: REC migration. A) Increasing concentrations of compound (II-4) inhibit VEGF-induced migration in a scratch wound assay; [Serum Free-control, VEGF (100 ng/mL), VEGF+100 nM, 500 nM, 10 μM, 100 μM] (IC50≈180 ηM; n=6/group). Cells were stained with DAPI for representative images. B) RECs seeded onto transwell membranes were stimulated with VEGF+ vehicle or compound (II-4) for 24 hrs. Cells were removed from the topside of membrane and migrated cells were stained with DAPI [Serum-Free (SF), VEGF, +100, +500 nM, respectively]. Cell number was measured using fluorescence microscopy. All data are mean±SD (*, # P<0.001)

[3] = tested on: 92.1 cell line; experiment: CFSE cellular proliferation, 92.1; assay type: cell-based, human; conditions: 96 hrs culture, 1 μM for the last 24 hrs
Procedure: Harvested cells were resuspended at a concentration of 1.0×10^6 cells/mL in warm PBS/1% FBS. Cells were labeled with […] (Invitrogen) for 5 minutes at 37° C. then quenched on cold growth media (final volume 20 mL) for 10 minutes, twice. Cultured unlabeled cells were used as controls.
To test the hypothesis that inhibition of paxillin will reduce cellular proliferation UM cell lines were labeled with carboxyfluorescein succunimidyl ester (CFSE), a cell tracking dye, and cultured for 96 hrs. A group of cells received treatment with compound (II-4) for the last 24 hours. Maximum CFSE fluorescence was controlled using labeled cells prior culture −0 hr. Negative control was established using unlabeled cells cultured in parallel. Histograms in FIG. 15D show 96 hrs cultured cells divided with a 1-log shift or reduction in CFSE intensity. […] Cell proliferation was not affected in the 92.1 cell line. […]
FIG. 15: The paxillin inhibitor Compound (II-4) selectively affects cellular proliferation of primary UM cells that become metastatic. […] Unlabeled cells were used to control fluorescence. […] B. Quantitation of experiment +/−SD including primary UM that becomes metastatic (Mel 270), metastatic (OMM 2.1) and primary (92.1) UM cells. *P=0.0007 and **P=0.0005. […] Quantitation of VLA-4 protein levels +/−SD from n=3. […]

[4] = target: T1, melatonin-1 receptor (MT-1) (Homo sapiens, UniProt P48039); experiment: Off-target counter screening, ExpresS Profile; assay type: binding; conditions: 10 μM
T1 construct: purchased Eurofins, Cerep Panlabs ExpresS Profile
Procedure: (§1) Counter-screen assays to determine “off-target” effects are conducted at an early stage to mitigate toxicological risk of new chemical entities. Compound (II-4) (10 μM) counter screening was conducted against a wide variety of target receptors, enzymes, and ion channels using a serum-free cell-based assay, ExpresS Profile (Eurofins, Cerep Panlabs). Inhibition >50% is considered a “positive” interaction.

[5] = target: T2, serotonin receptor 5-HT2B (Homo sapiens, UniProt P41595); experiment: Off-target counter screening, ExpresS Profile; assay type: binding; conditions: 10 μM
T2 construct: purchased Eurofins, Cerep Panlabs ExpresS Profile
Procedure: as §1

T2 sequence (P41595 whole entry): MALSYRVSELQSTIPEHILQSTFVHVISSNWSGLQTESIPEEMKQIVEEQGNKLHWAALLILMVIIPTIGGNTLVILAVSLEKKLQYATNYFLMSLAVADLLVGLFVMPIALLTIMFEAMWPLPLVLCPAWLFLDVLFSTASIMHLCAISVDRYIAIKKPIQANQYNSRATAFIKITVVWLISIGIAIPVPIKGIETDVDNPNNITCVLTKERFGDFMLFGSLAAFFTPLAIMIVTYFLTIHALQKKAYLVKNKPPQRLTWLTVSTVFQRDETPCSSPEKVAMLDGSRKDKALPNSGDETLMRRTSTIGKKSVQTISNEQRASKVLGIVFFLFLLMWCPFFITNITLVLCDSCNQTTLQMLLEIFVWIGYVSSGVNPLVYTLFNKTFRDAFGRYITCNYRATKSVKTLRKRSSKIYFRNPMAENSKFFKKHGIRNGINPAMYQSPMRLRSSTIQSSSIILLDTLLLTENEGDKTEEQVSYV
T1 sequence (P48039 whole entry): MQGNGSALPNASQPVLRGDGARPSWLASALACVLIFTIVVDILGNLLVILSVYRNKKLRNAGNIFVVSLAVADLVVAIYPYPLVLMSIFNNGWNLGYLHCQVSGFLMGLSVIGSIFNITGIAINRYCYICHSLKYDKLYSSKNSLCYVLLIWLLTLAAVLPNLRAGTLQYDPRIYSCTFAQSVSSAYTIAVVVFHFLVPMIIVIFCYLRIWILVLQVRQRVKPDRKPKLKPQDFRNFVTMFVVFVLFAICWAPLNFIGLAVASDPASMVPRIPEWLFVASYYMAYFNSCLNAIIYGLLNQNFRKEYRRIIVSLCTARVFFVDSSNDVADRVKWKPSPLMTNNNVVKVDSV

With `COc1cc(C2OC(=O)Nc3c2ccc2ccccc32)cc(OC)c1OC` (stereo not shown) [compound II-4] the “microsomal stability (metabolism by cytochrome P-450 enzymes)” value [1] was “rapidly metabolized”, the IC50 ([2]; VEGF (100 ng/mL), n=6/group, read-out: IC50, inhibition of VEGF-induced migration in scratch wound assay) was ~0.18 µM and the IC50 ([2]; wound closure at 24 hours, VEGF (100 μg/mL), compound 100 μM to 10 μM as printed, read-out: IC50, inhibition of VEGF-induced REC migration (wound closure)) was 0.181 µM. The “reduction of migration in REC scratch-wound assay” value ([2]; VEGF (20 ng/mL), compound (II-4) 1 μM vs vehicle, 24 hrs post-scratch) was ~10 fold, the “cell proliferation (CFSE)” value [3] was “not affected” and the “off-target interaction, MT-1 (inhibition >50% considered positive)” value [4] was “possible binding targets”. For the same compound, the “off-target interaction, 5-HT2B (inhibition >50% considered positive)” value [5] was “possible binding targets”.
